The text below walks through data of patent US9573954B2, “Pyrazolopyrimidine compounds” (University Health Network, priority 2012, dated 2017).

Some results are limits rather than exact numbers.

One assay addresses T1, human TTK (Homo sapiens, UniProt P33981).
T1 construct: Active TTK was purchased from Invitrogen as an amino terminal GST fusion of full length human TTK; purchased Invitrogen
T1 sequence (P33981 1-857): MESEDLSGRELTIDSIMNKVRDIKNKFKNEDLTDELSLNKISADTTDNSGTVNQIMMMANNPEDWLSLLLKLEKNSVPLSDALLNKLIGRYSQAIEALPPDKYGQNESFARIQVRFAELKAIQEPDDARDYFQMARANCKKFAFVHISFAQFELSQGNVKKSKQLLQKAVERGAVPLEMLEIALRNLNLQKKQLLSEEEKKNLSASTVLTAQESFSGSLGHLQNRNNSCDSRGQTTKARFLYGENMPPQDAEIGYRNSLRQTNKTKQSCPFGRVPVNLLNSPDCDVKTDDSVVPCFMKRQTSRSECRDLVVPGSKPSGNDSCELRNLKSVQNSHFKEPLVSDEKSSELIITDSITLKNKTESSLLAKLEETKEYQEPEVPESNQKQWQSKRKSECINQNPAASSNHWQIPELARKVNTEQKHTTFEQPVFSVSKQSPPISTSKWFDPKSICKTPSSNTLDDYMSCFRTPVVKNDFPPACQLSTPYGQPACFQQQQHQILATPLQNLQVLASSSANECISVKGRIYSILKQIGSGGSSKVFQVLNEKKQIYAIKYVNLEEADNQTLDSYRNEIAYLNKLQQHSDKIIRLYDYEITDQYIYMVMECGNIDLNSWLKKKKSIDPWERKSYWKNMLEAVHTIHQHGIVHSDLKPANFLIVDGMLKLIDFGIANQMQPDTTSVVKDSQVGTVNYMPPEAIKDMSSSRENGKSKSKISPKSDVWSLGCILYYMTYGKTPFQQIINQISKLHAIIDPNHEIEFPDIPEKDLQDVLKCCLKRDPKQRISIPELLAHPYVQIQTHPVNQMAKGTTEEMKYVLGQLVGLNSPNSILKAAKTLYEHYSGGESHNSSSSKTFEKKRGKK
Put plainly: TTK inhibition assay (indirect ELISA). It counts as biochemical. To be noted: Table 2; 16 μM ATP (asterisk); read-out: TTK IC50 Range. The method, boiled down:
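Activity detected by indirect ELISA after compounds sat with full-length GST-TTK for 5 min prior to starting the reaction with ATP. IC50 came from a four-parameter logistic curve of % inhibition, calculated against background and uninhibited control wells.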
Background: ELISA stands for enzyme-linked immunosorbent assay.

Assay [1] deals with colon cancer cells (HCT116). Put plainly: Cancer cell line growth inhibition, Sulforhodamine B assay, HCT116. The class given is cell-based. To be noted: Homo sapiens, HCT-116, 120 h, Table 2; HCT116, 5 days, SRB; read-out: Cancer Cell Line GI50 Range HCT116. A digest of the protocol: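 GI50 is calculated from growth inhibition relative to DMSO controls, using TCA-fixed, SRB-stained protein mass read at 570 nm. Compound, 10 nM–50 μM final in 10% FBS DMEM, was applied for 5 days to HCT116 cells that had been plated 24 h before at 1000–4000/well.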
For orientation: Sulforhodamine B stains cellular protein and so reports cell mass.

Assay [2] relates to breast cancer cells (MDA-MB-231). Put plainly: Cancer cell line growth inhibition, Sulforhodamine B assay, MDA-MB-231. The class given is cell-based. Particulars: Homo sapiens, 120 h; Table 2; MDA-MB-231, 5 days, SRB; read-out: Cancer Cell Line GI50 Range MDA-MB-231. As for the experimental part: Breast cancer cells (MDA-MB-231 and MDA-MB-468), colon cancer cells (HCT116) and ovarian cancer cells (PA-1 and OVCAR-3) were seeded (1000 to 4000 in 80 μl per well depending on the cell growth rate) into 96 well plates 24 hours before compound overlay. Compounds were prepared as 10 mM stock solutions in 100% DMSO which were diluted with DMEM (Dulbecco's Modified Eagle's Medium) cell growth Medium (Invitrogen, Burlington, ON, Canada) containing 10% FBS (Fetal Bovine Serum) to concentrations ranging from 50 nM to 250 μM. Aliquots (20 μl) from each concentration were overlaid to 80 μl of the pre-seeded cells in the 96 well plates to make final concentrations of 10 nM to 50 μM. The cells were cultured for 5 days before the Sulforhodamine B assay (SRB) was performed to determine the compound's cell growth inhibition activity.
Sulforhodamine B (purchased from Sigma, Oakville, ON, Canada) is a water-soluble dye that binds to the basic amino acids of the cellular proteins. Thus, colorimetric measurement of the bound dye provides an estimate of the total protein mass that is related to the cell number. the cells are fixed in situ by gently aspirating off the culture media and adding 50 μl ice cold 10% Trichloroacetic Acid (TCA) per well and incubate at 4° C. for 30-60 min, The plates are washed with H2O five times and allowed to air dry for 5 min. Addition of 50 μl 0.4% (w/v) SRB solution in 1% (v/v) acetic acid to each well and incubation for 30 min at RT completes the staining reaction. Following staining, plates are washed four times with 1% acetic acid to remove unbound dye and then allowed to air dry for 5 min. The stain is solubilized with 100 μl of 10 mM Tris pH 10.5 per well. Absorbance is read at 570 nm.
The percentage (%) of relative growth inhibition was calculated by comparing to DMSO treated only cells (100%). GI50's were determined for compounds with cytotoxic activity. The GI50 was calculated using GraphPad PRISM software (GraphPad Software, Inc., San Diego, Calif., USA).
In Table 2 below, GI50 value ranges for compound examples against breast cancer cell lines (MDA-MB-231), colon cancer cell lines (HCT116) and ovarian cancer cell lines (PA-1) are given.

For assay [3], the system named is ovarian cancer cells (PA-1). Nature of the assay: Cancer cell line growth inhibition, Sulforhodamine B assay, PA-1. The class given is cell-based. To be noted: 120 h; Table 2; PA-1, 5 days, SRB; read-out: Cancer Cell Line GI50 Range PA-1. A digest of the protocol:
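PA-1 ovarian cancer cells seeded 24 h before compound, then exposed to final 10 nM to 50 μM in DMEM/10% FBS for 5 days. Cell mass measured by TCA fixation and sulforhodamine B staining, absorbance 570 nm; GI50 derived from growth inhibition relative to DMSO-treated cells.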

The subject of assay [4] is Ovarian 2393A tumor initiating cells. Nature of the assay: Tumor-initiating cell growth inhibition, Alamar Blue assay, ovarian TICs. It counts as cell-based. To be noted: 144 h; Table 2; ovarian TICs, 6 days, Alamar Blue; read-out: Tumor Initiating Cell GI50 Range Ovarian 2393A. The method, boiled down: (§1)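 Colon TICs (4,000/well, non-TC plates) and ovarian TICs (1,000/well, TC plates) kept in serum-free DMEM:F12 with B-27, heparin, bFGF and EGF. Compound added after 24 h at 0.1% DMSO, then 9 days (colon) or 6 days (ovarian) at 37° C. GI50 from Alamar Blue fluorescence (ex 544/em 590) after 4 h.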
(The colour change of resazurin is a common sign of viable cells or microbes.)

The subject of assay [5] is Colon 12 tumor initiating cells. Put plainly: Tumor-initiating cell growth inhibition, Alamar Blue assay, colon TICs. It counts as cell-based. Particulars: 216 h; Table 2; colon TICs, 9 days, Alamar Blue; read-out: Tumor Initiating Cell GI50 Range Colon 12. A digest of the protocol: as §1

Broadly, the IC50 is the midpoint of a concentration-inhibition curve. Broadly, the GI50 is the concentration that inhibits growth by half. For `O=C(NC1CC1)c1ccc(-c2cnn3c(NCC4CCOCC4)cc(Oc4ccccc4)nc23)cc1Cl` [Example B7, 2-chloro-N-cyclopropyl-4-(5-phenoxy-7-(((tetrahydro-2H-pyran-4-yl)methyl)amino)pyrazolo[1,5-a]pyrimidin-3-yl)benzamide], at human TTK, the IC50 is under 100 nM. Besides, the 50% growth inhibitory concentration (GI50) in assay [1], in assay [2], in assay [3], in assay [4] and in assay [5] was at most 100 nM throughout.

As for `Cc1cc(-c2cnn3c(NCCN4CCOCC4)cc(Oc4ccccc4)nc23)ccc1C(=O)NC1CC1` [Example B5, N-cyclopropyl-2-methyl-4-(7-((2-morpholinoethyl)amino)-5-phenoxypyrazolo[1,5-a]pyrimidin-3-yl)benzamide], the IC50 on human TTK was under 100 nM. Also, the GI50 in assay [1], in assay [2], in assay [3], in assay [4] and in assay [5] was at most 100 nM throughout.

As for `Cc1cc(-c2cnn3c(NCCC4CCOCC4)cc(Oc4ccccc4)nc23)ccc1C(=O)NC1CC1` [Example B20, N-cyclopropyl-2-methyl-4-(5-phenoxy-7-((2-(tetrahydro-2H-pyran-4-yl)ethyl)amino)pyrazolo[1,5-a]pyrimidin-3-yl)benzamide], the half-maximal inhibitory concentration (IC50) at human TTK is under 100 nM. Besides, the GI50 in assay [1], in assay [2], in assay [3], in assay [4] and in assay [5] was at most 100 nM each time.

Regarding `COCCNc1cc(Oc2ccccc2)nc2c(-c3ccc(C(=O)NC4CC4)c(C)c3)cnn12` [Example B13, N-cyclopropyl-4-(7-((2-methoxyethyl)amino)-5-phenoxypyrazolo[1,5-a]pyrimidin-3-yl)-2-methylbenzamide], the IC50 on human TTK was under 100 nM. The concentration for 50% growth inhibition (GI50) in assay [1] is at most 100 nM; in assay [2] it was at most 100 nM; in assay [3] it was at most 100 nM; in assay [4] it was 100 to 500 nM; in assay [5], at most 100 nM.

Take `Cc1cc(-c2cnn3c(NCC4CCOCC4)cc(Oc4cccnc4)nc23)ccc1C(=O)NC1CC1` [Example B9, N-cyclopropyl-2-methyl-4-(5-(pyridin-3-yloxy)-7-(((tetrahydro-2H-pyran-4-yl)methyl)amino)pyrazolo[1,5-a]pyrimidin-3-yl)benzamide]: the IC50 at human TTK is under 100 nM. Also, the GI50 in assay [1], in assay [2], in assay [3], in assay [4] and in assay [5] was at most 100 nM throughout.

Regarding `O=C(NC1CC1)c1ccc(-c2cnn3c(NCCN4CCOCC4)cc(Oc4ccccc4)nc23)cc1` [Example B6, N-cyclopropyl-4-(7-((2-morpholinoethyl)amino)-5-phenoxypyrazolo[1,5-a]pyrimidin-3-yl)benzamide], at human TTK, the half-maximal inhibitory concentration (IC50) was under 100 nM. In addition, the 50% growth inhibitory concentration (GI50) in assay [1] is 100 to 500 nM; in assay [2] it was 100 to 500 nM; in assay [3] it was at most 100 nM; in assay [4], 100 to 500 nM; in assay [5], 100 to 500 nM.

As for `COCCNc1cc(Oc2ccccc2)nc2c(-c3ccc(C(=O)NC4CC4)cc3)cnn12` [Example B2, N-cyclopropyl-4-(7-((2-methoxyethyl)amino)-5-phenoxypyrazolo[1,5-a]pyrimidin-3-yl)benzamide], on human TTK, the IC50 was under 100 nM. In addition, the GI50 in assay [1] is over 500 nM; in assay [2] it was over 500 nM; in assay [3] it was 100 to 500 nM; in assay [4] it was over 500 nM; in assay [5], 100 to 500 nM.

For `Cc1cc(-c2cnn3c(NCC4CCOCC4)cc(Oc4ccccc4)nc23)ccc1C(=O)NC1CC1` [Example B1], the IC50 at human TTK was under 100 nM. In addition, the concentration for 50% growth inhibition (GI50) in assay [1], in assay [2], in assay [3], in assay [4] and in assay [5] was at most 100 nM throughout.
